This is an account of results in patent publication US7462614B2, “Imidazotriazine compounds” (Smithkline Beecham Corporation, priority 2003, dated 2008).

The subject of experiment [1] is lung (H460) tumor cell line. Nature of the experiment: Methylene Blue Growth Inhibition Assay, H460. The format is cell-based. The conditions noted are these: Homo sapiens, NCI-H460, 72 h; H460, 3 days; read-out: MeB Cell Line IC50. An excerpt:
(§1) II. Methylene Blue Growth Inhibition Assay
(§2) Medium was removed by aspiration.

For experiment [2], the system named is colon (HCT116) tumor cell line. Nature of the experiment: Methylene Blue Growth Inhibition Assay, HCT116. The settings on record: Homo sapiens, HCT-116, 72 h; HCT116, 3 days; read-out: MeB Cell Line IC50. It is filed as cell-based.
Source text: as §1, §2

For experiment [3], the system named is Normal Human foreskin fibroblasts (HFF). The experiment is described as follows: Methylene Blue Growth Inhibition Assay, HFF. It is filed as cell-based. The conditions noted are these: 72 h, 3 days, read-out: MeB Cell Line IC50.
Source text: as §1, §2

For experiment [4], the system named is breast tumor (MCF7) cell line. The experiment is described as follows: Methylene Blue Growth Inhibition Assay, MCF7. The format is cell-based. The settings on record: Homo sapiens, 72 h; MCF7, 3 days; read-out: MeB Cell Line IC50.
Source text: as §1, §2

Experiment [5] deals with prostate (PC3) tumor cell line. Nature of the experiment: Methylene Blue Growth Inhibition Assay, PC3. The format is cell-based. The conditions noted are these: Homo sapiens, 72 h; PC3, 3 days; read-out: MeB Cell Line IC50.
Source text: as §1, §2

The subject of experiment [6] is colon (RKO) tumor cell line. Nature of the experiment: Methylene Blue Growth Inhibition Assay, RKO. It is filed as cell-based. The conditions noted are these: Homo sapiens, 72 h, 3 days, read-out: MeB Cell Line IC50.
Source text: as §1, §2

Another experiment concerns COLO205. Nature of the experiment: cells. The settings on record: Homo sapiens, COLO 205, 72 h, read-out: MeB Cell Line IC50.
A further experiment relates to IMR90. The experiment is described as follows: cells. The settings on record: Homo sapiens, IMR-90, 72 h, read-out: MeB Cell Line IC50.
The test system of the next experiment is MDA435. Nature of the experiment: cells. The settings on record: MDA435, 72 h, read-out: MeB Cell Line IC50.
The test system of a further experiment is SAOS2. Nature of the experiment: cells. The conditions noted are these: Homo sapiens, SAOS-2, 72 h, read-out: MeB Cell Line IC50.
Experiment [7] addresses T1, truncated human PLK1 (kinase domain) (Homo sapiens, UniProt P53350).
T1 construct: made in house; host or cells: baculovirus-infected T. ni insect cells
The experiment is described as follows: Assay for Inhibition of PLK1 (33P SPA enzyme activity). The format is biochemical. The settings on record: 1 μM ATP, 2 nM enzyme; read-out: Ave pIC50 PLK Enzyme Inhibition (converted). The method, boiled down:
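Enzyme is the 6×His-tagged PLK1 kinase domain, purified by Ni-chelate and gel filtration. Compounds added in DMSO, then enzyme; reaction stopped with EDTA/streptavidin SPA bead mix containing 60 μM ATP, read by 33P scintillation proximity.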

T1 sequence (P53350 21-346): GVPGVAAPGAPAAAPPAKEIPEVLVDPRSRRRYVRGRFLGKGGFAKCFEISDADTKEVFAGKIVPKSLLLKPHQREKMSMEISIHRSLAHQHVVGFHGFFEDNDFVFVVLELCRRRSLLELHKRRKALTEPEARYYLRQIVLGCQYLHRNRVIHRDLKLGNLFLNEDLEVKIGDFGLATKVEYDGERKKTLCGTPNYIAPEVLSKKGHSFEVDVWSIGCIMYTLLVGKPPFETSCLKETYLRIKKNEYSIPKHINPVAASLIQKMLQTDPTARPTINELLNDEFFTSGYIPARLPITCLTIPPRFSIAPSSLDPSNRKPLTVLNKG

With `COc1cc(Nc2ncc3c(C)nc(-c4ccccc4)n3n2)cc(OC)c1OC` [Example 1, 5-Methyl-7-phenyl-N-(3,4,5-trimethoxyphenyl)imidazo[5,1-f][1,2,4]triazin-2-amine], the IC50 is 1 to 10 µM in experiment [1]; 1 to 10 µM in [2]; 10 to 30 µM in experiment [3]; 1 to 10 µM in experiment [4]; 10 to 30 µM in experiment [5]; 1 to 10 µM in experiment [6]. Moreover, the IC50 in the experiment on COLO205 lay within 1 to 10 µM; in the experiment on IMR90, 10 to 30 µM; with MDA435, 1 to 10 µM; in the experiment with SAOS2 it was 1 to 10 µM.
With `COc1cc(Nc2ncc3c(C)nc(-c4ccc(C(F)(F)F)cc4)n3n2)cc(OC)c1OC` [Example 24, 5-Methyl-7-[4-(trifluoromethyl)phenyl]-N-(3,4,5-trimethoxy-phenyl)imidazo[5,1-f][1,2,4]triazin-2-amine], the IC50 in [7] is 0.1 to 10 µM; in experiment [1], 10 to 30 µM; in [2], 10 to 30 µM; in experiment [3], 10 to 30 µM; in experiment [4], 10 to 30 µM; in experiment [5] it was 10 to 30 µM. In addition, in experiment [6], the IC50 lay within 10 to 30 µM.
As for `Cc1nc(-c2cccc(C(F)(F)F)c2)n2nc(Nc3cccc(S(N)(=O)=O)c3)ncc12` [Example 41, 3-({5-Methyl-7-[3-(trifluoromethyl)phenyl]imidazo[5,1-f][1,2,4]triazin-2-yl}amino)benzenesulfonamide], the IC50 in experiment [7] was 0.1 to 10 µM; in [1], 1 to 10 µM; in [2] it was 1 to 10 µM; in experiment [3] it was 10 to 30 µM; in experiment [4], 1 to 10 µM; in experiment [5] it was 10 to 30 µM. Further, in experiment [6], the IC50 lay in the range of 1 to 10 µM.
With `COc1ccc(NC(C)=O)cc1Nc1ncc2c(C)nc(-c3cccc(C(F)(F)F)c3)n2n1` [Example 43, N-[4-Methoxy-3-({5-methyl-7-[3-(trifluoromethyl)phenyl]imidazo-[5,1-f][1,2,4]triazin-2-yl}amino)phenyl]acetamide], the IC50 in [7] was under 0.1 µM; in experiment [1], 1 to 10 µM; in experiment [2], 1 to 10 µM; in experiment [3] it was 10 to 30 µM; in experiment [4], 1 to 10 µM; in experiment [5], 10 to 30 µM. In addition, the IC50 in [6] fell in the range of 1 to 10 µM.
For `Cc1nc(-c2cccc(C(F)(F)F)c2)n2nc(Nc3cccc(CCO)c3)ncc12` [Example 44, 2-[3-({5-Methyl-7-[3-(trifluoromethyl)phenyl]imidazo[5,1-f][1,2,4]triazin-2-yl}amino)phenyl]ethanol], the IC50 in experiment [7] is under 0.1 µM; in experiment [1], 1 to 10 µM; in experiment [2], 1 to 10 µM; in [3], 10 to 30 µM; in [4], 10 to 30 µM; in experiment [5], 10 to 30 µM. Also, the IC50 in experiment [6] fell in the range of 1 to 10 µM.
For the molecule `CC(=O)Nc1ccc(Nc2ncc3c(C)nc(-c4cccc(C(F)(F)F)c4)n3n2)cc1` [Example 46, N-[4-({5-Methyl-7-[3-(trifluoromethyl)phenyl]imidazo[5,1-f][1,2,4]triazin-2-yl}amino)phenyl]acetamide], the IC50 was under 0.1 µM in experiment [7]; 10 to 30 µM in experiment [1]; 1 to 10 µM in experiment [2]; 10 to 30 µM in experiment [3]; 1 to 10 µM in experiment [4]; 10 to 30 µM in experiment [5]. Further, in experiment [6], the IC50 was 1 to 10 µM.
For the molecule `CC(=O)Nc1cccc(Nc2ncc3c(C)nc(-c4cccc(C(F)(F)F)c4)n3n2)c1` [Example 47, N-[3-({5-Methyl-7-[3-(trifluoromethyl)phenyl]imidazo[5,1-f][1,2,4]triazin-2-yl}amino)phenyl]acetamide], the IC50 in experiment [7] is under 0.1 µM; in [1] it was 10 to 30 µM; in experiment [2], 1 to 10 µM; in experiment [3], 10 to 30 µM; in [4], 10 to 30 µM; in experiment [5], 10 to 30 µM. Besides, the IC50 in experiment [6] lay within 10 to 30 µM.
Consider `Cc1nc(-c2cccc(C(F)(F)F)c2)n2nc(Nc3cccc(CNC(=O)OC(C)(C)C)c3)ncc12` [Example 48, tert-Butyl 3-({5-methyl-7-[3-(trifluoromethyl)phenyl]imidazo[5,1-f][1,2,4]triazin-2-yl}amino)benzylcarbamate], for which the IC50 in [7] was 0.1 to 10 µM; in experiment [1] it was 10 to 30 µM; in experiment [2], 10 to 30 µM; in experiment [3], 10 to 30 µM; in experiment [4], 10 to 30 µM; in experiment [5] it was 10 to 30 µM. Moreover, the IC50 in experiment [6] was in the range of 1 to 10 µM.
As to `Cc1nc(-c2ccccc2)n2nc(Nc3cccc(CCS(=O)(=O)O)c3)ncc12` [Example 57, 2-{3-[(5-Methyl-7-phenylimidazo[5,1-f][1,2,4]triazin-2-yl)amino]phenyl}ethanesulfonic acid], the IC50 was under 0.1 µM in experiment [7]; 10 to 30 µM in experiment [1]; 10 to 30 µM in experiment [2]; 10 to 30 µM in experiment [3]; 10 to 30 µM in experiment [4]; 10 to 30 µM in [5]. Further, the IC50 in [6] lay within 10 to 30 µM.
